Assay results reported in PubChem BioAssay AID1259408 (Genetic Toxicology Data Bank (GENE-TOX), 2018).
The source made the active and inactive calls. The rule behind the calls is not given here.

System: GENE-TOX genotoxicity assays, various organisms and cells
Test: GENE-TOX mutagenicity studies
Settings: for call: Assay Type: In vivo carcinogenicity studies
[1] = Species/Cell Type: Neurospora crassa, Assay Type: Forward gene mutation, Assay Code: NEF+, Evaluation Type: Evaluation A (Pre-1980)
[2] = Species/Cell Type: Nonhuman, Assay Code: CCG+, Evaluation Type: Evaluation A (Pre-1980)
[3] = Species/Cell Type: Salmonella typhimurium (one or more of the five standard strains: TA98, TA100, TA1535, TA1537, and TA1538), Assay Type: Histidine reverse gene mutation, Ames assay, Assay Code: SAL+*, Activation: With metabolic activation, Evaluation Type: Evaluation A (Pre-1980)
[4] = Species/Cell Type: Nonhuman, Assay Type: Sister-chromatid exchange (SCE) in vitro, Assay Code: SC2T, Evaluation Type: Evaluation A (Pre-1980)
[5] = Species/Cell Type: Salmonella typhimurium (one or more of the five standard strains: TA98, TA100, TA1535, TA1537, and TA1538), Assay Type: Histidine reverse gene mutation, Ames assay, Assay Code: SALT, Evaluation Type: Evaluation A (Pre-1980)
[6] = Species/Cell Type: Nonhuman, Assay Type: Sister-chromatid exchange (SCE) in vitro, Assay Code: SC2+, Evaluation Type: Evaluation B (Post-1980)
[7] = Species/Cell Type: Syrian hamster embryo (SHE) cells, Assay Type: Cell transformation, clonal assay, Assay Code: CTC+, Evaluation Type: Evaluation A (Pre-1980)
[8] = Species/Cell Type: Syrian hamster embryo (SA7/SHE) cells, Assay Type: Cell transformation, viral enhanced, Assay Code: CT7+, Evaluation Type: Evaluation A (Pre-1980)
[9] = Species/Cell Type: Escherichia coli polA (W3119 vs P3478), Assay Type: Rec-assay, DNA effects (bacterial DNA repair), Assay Code: RE1+, Evaluation Type: Evaluation A (Pre-1980)
[10] = Species/Cell Type: Mouse lymphoma (L5178Y) cells, Assay Type: Forward gene mutation at the thymidine kinase (TK) locus, chromosome aberrations, Assay Code: L51+, Evaluation Type: Evaluation A (Pre-1980)

With `O=C1NCCN1c1ncc([N+](=O)[O-])s1` the mutagenic call (Species/Cell Type: Escherichia coli WP2, Assay Type: Tryptophan reverse gene mutation, Assay Code: WP2+D, Dose Response: With dose response, Evaluation Type: Evaluation A (Pre-1980)) was “active; positive”, the mutagenic call (Species/Cell Type: Escherichia coli WP2 UVRA, Assay Type: Tryptophan reverse gene mutation, Assay Code: WPU+D, Dose Response: With dose response, Evaluation Type: Evaluation A (Pre-1980)) was “active; positive” and the mutagenic call (Species/Cell Type: Human, Sex: Male, Assay Type: Sperm morphology, Assay Code: SPH-, Evaluation Type: Evaluation A (Pre-1980)) was “inactive; negative”. For the same compound, the mutagenic call [1] was “active; positive”, the call [2] was “active; positive” and the mutagenic call (Species/Cell Type: Saccharomyces cerevisiae, Assay Type: Mitotic recombination or gene conversion, Assay Code: YEH+, Evaluation Type: Evaluation A (Pre-1980)) was “active; positive”. For the same compound, the mutagenic call (Species/Cell Type: Salmonella typhimurium (one or more of the five standard strains: TA98, TA100, TA1535, TA1537, and TA1538), Assay Type: Histidine reverse gene mutation, Ames assay, Assay Code: SAL+, Evaluation Type: Evaluation A (Pre-1980)) was “active; positive”.

In the case of `c1cc2ccc3cc4cccc5ccc6cc(c1)c2c3c6c54`, the mutagenic call [3] is reported as “active; positive”.

With `Cc1c2c(cc3ccccc13)-c1ccccc1C(O)C2O` (stereo not given) the mutagenic call (Species/Cell Type: Chinese hamster lung (V79) cells, Assay Type: Forward gene mutation at the HPRT or ouabain locus, Assay Code: V79-*, Activation: With metabolic activation, Evaluation Type: Evaluation A (Pre-1980)) was “inactive; negative”, the call (Species/Cell Type: Nonhuman, Assay Code: CCGT, Evaluation Type: Evaluation A (Pre-1980)) was “no conclusion” and the mutagenic call [4] was “no conclusion”. The mutagenic call [5] was “no conclusion”.

For `O=C(O)C1(O)C[C@@H](O)C(O)[C@H](O)C1` (stereo not given in full), the mutagenic call (Species/Cell Type: Salmonella typhimurium (one or more of the five standard strains: TA98, TA100, TA1535, TA1537, and TA1538), Assay Type: Histidine reverse gene mutation, Ames assay, Assay Code: SAL-, Evaluation Type: Evaluation A (Pre-1980)) was “inactive; negative”.

For `CC(=O)N(O)c1ccc(-c2ccccc2)cc1`, the mutagenic call (Species/Cell Type: Human diploid fibroblasts, Assay Type: Unscheduled DNA synthesis (UDS) in vitro, DNA effects, Assay Code: UDH+, Evaluation Type: Evaluation A (Pre-1980)) was “active; positive” and the mutagenic call [6] was “active; positive”.

For `CN1CCN(CC(=O)NN)CC1`, the mutagenic call (Species/Cell Type: Escherichia coli WP2, Assay Type: Tryptophan reverse gene mutation, Assay Code: WP2-, Evaluation Type: Evaluation A (Pre-1980)) was “inactive; negative” and the mutagenic call (Species/Cell Type: Saccharomyces cerevisiae, Assay Type: Mitotic recombination or gene conversion, Assay Code: YEC-*, Activation: With metabolic activation, Evaluation Type: Evaluation A (Pre-1980)) was “inactive; negative”.

In the case of `COCCOS(C)(=O)=O`, the mutagenic call (Species/Cell Type: Arabidopsis species, Assay Type: Gene mutation, Assay Code: ARM+D, Dose Response: With dose response, Evaluation Type: Evaluation A (Pre-1980)) is reported as “active; positive” and the mutagenic call (Species/Cell Type: Hordeum vulgare (barley), Assay Type: Chromosome aberrations, Assay Code: HOC+D, Dose Response: With dose response, Evaluation Type: Evaluation A (Pre-1980)) is reported as “active; positive”.

For `CO[C@@H]1[C@@H](OC(N)=O)[C@@H](O)[C@H](Oc2ccc3c(O)c(NC(=O)c4ccc(O)c(CC=C(C)C)c4)c(=O)oc3c2C)OC1(C)C`, the mutagenic call [6] was “active; positive”.

In the case of `CCCCNCCCCO`, the mutagenic call (Species/Cell Type: Nonhuman, Assay Type: Chromosome aberrations in vitro, Assay Code: CY&-, Evaluation Type: Evaluation A (Pre-1980)) is reported as “inactive; negative” and the mutagenic call [4] is reported as “no conclusion”.

In the case of `Cc1cc(O)ccc1C1(c2ccc(O)cc2C)OS(=O)(=O)c2ccccc21`, the mutagenic call (Species/Cell Type: Allium cepa, Assay Type: Chromosome aberrations, Assay Code: ALC+D, Dose Response: With dose response, Evaluation Type: Evaluation A (Pre-1980)) is reported as “active; positive”.

In the case of `CCN(N=O)c1ccccc1`, the mutagenic call (Species/Cell Type: Fischer rat embryo (RLV/1706) cells, Assay Type: Cell transformation, viral enhanced, Assay Code: CTR-, Evaluation Type: Evaluation A (Pre-1980)) is reported as “inactive; negative”, the mutagenic call (Species/Cell Type: Mouse (BALB/c-3T3) cells, Assay Type: Cell transformation, Assay Code: CTB-, Evaluation Type: Evaluation A (Pre-1980)) is reported as “inactive; negative” and the mutagenic call [7] is reported as “active; positive”.

In the case of `[Cl][Tl]`, the mutagenic call [8] is reported as “active; positive”.

For `O=[N+]([O-])c1ccc(/C=C/c2nccn2Cc2ccccc2)o1`, the mutagenic call (Species/Cell Type: Neurospora crassa, Assay Type: Reverse gene mutation, Assay Code: NER+, Evaluation Type: Evaluation A (Pre-1980)) was “active; positive”.

With `COC(=O)C1=CCCN(N=O)C1` the mutagenic call (Species/Cell Type: Drosophila melanogaster, Assay Type: Sex-linked recessive lethal gene mutation, Assay Code: SRLT, Evaluation Type: Evaluation A (Pre-1980)) was “no conclusion” and the mutagenic call [3] was “active; positive”.

In the case of `COc1cc2c3cc1Oc1cc(ccc1O)C[C@@H]1c4c(cc(OC)c(O)c4Oc4ccc(cc4)C[C@@H]3N(C)CC2)CC[N+]1(C)C`, the mutagenic call (Species/Cell Type: Escherichia coli polA (W3119 vs P3478), Assay Type: Rec-assay, DNA effects (bacterial DNA repair), Assay Code: RE1T, Evaluation Type: Evaluation A (Pre-1980)) is reported as “no conclusion” and the mutagenic call [5] is reported as “no conclusion”.

In the case of `BrCCBr`, the mutagenic call (Species/Cell Type: Aspergillus nidulans, Assay Type: Forward gene mutation, Assay Code: ASF+, Evaluation Type: Evaluation A (Pre-1980)) is reported as “active; positive”, the mutagenic call (Species/Cell Type: Chinese hamster ovary (CHO) cells, Assay Type: Forward gene mutation at the HPRT locus, Assay Code: CHO+, Evaluation Type: Evaluation B (Post-1980)) is reported as “active; positive” and the mutagenic call (Species/Cell Type: Drosophila melanogaster, Assay Type: Sex-linked recessive lethal gene mutation, Assay Code: SRL+, Evaluation Type: Evaluation A (Pre-1980)) is reported as “active; positive”. For the same compound, the mutagenic call [9] was “active; positive”, the mutagenic call (Species/Cell Type: Fischer rat embryo (RLV/1706) cells, Assay Type: Cell transformation, viral enhanced, Assay Code: CTR+, Evaluation Type: Evaluation A (Pre-1980)) was “active; positive” and the mutagenic call (Species/Cell Type: Human lymphocytes, Assay Type: Sister-chromatid exchange (SCE) in vitro, Assay Code: SCL+, Evaluation Type: Evaluation B (Post-1980)) was “active; positive”. For the same compound, the mutagenic call (Species/Cell Type: Human, Assay Type: Sister-chromatid exchange (SCE) in vitro, Assay Code: SC1+, Evaluation Type: Evaluation B (Post-1980)) was “active; positive”, the mutagenic call (Species/Cell Type: Human, Sex: Male, Assay Type: Sperm morphology, Assay Code: SPH+, Evaluation Type: Evaluation A (Pre-1980)) was “active; positive” and the mutagenic call (Species/Cell Type: Mammalian polychromatic erythrocytes, Assay Type: Micronucleus test, chromosome aberrations, Assay Code: MNTT, Evaluation Type: Evaluation B (Post-1980)) was “no conclusion”. The mutagenic call (Species/Cell Type: Mouse germ cells, Sex: Male, Assay Type: Unscheduled DNA synthesis (UDS) in vivo, DNA effects, Assay Code: UDT-, Evaluation Type: Evaluation A (Pre-1980)) was “inactive; negative”, the mutagenic call [10] was “active; positive” and the mutagenic call [1] was “active; positive”. For the same compound, the call [2] was “active; positive”, the mutagenic call (Species/Cell Type: Nonhuman, Assay Type: Sister-chromatid exchange (SCE) in vitro, Assay Code: SC2+D, Dose Response: With dose response, Evaluation Type: Evaluation B (Post-1980)) was “active; positive” and the mutagenic call (Species/Cell Type: Nonhuman, Assay Type: Sister-chromatid exchange (SCE) in vivo, Assay Code: SC3+, Evaluation Type: Evaluation B (Post-1980)) was “active; positive”. For the same compound, the mutagenic call (Species/Cell Type: Plant, Assay Type: Micronucleus test, chromosome aberrations, Assay Code: MNP+, Evaluation Type: Evaluation A (Pre-1980)) was “active; positive”, the mutagenic call (Species/Cell Type: Saccharomyces cerevisiae, Assay Type: Mitotic recombination or gene conversion, Assay Code: YEC+, Evaluation Type: Evaluation A (Pre-1980)) was “active; positive” and the mutagenic call (Species/Cell Type: Salmonella typhimurium, Assay Type: Forward and reverse gene mutation, body fluid assay, Assay Code: BFUT, Evaluation Type: Evaluation A (Pre-1980)) was “no conclusion”. The mutagenic call (Species/Cell Type: Salmonella typhimurium, Assay Type: Forward and reverse gene mutation, host-mediated assay, Assay Code: HMA+, Evaluation Type: Evaluation A (Pre-1980)) was “active; positive”, the mutagenic call [8] was “active; positive” and the mutagenic call (Species/Cell Type: Tradescantia species, Assay Type: Chromosome aberrations, Assay Code: TRC+D, Dose Response: With dose response, Evaluation Type: Evaluation A (Pre-1980)) was “active; positive”. The mutagenic call (Species/Cell Type: Tradescantia species, Assay Type: Gene mutation, Assay Code: TRM+D, Dose Response: With dose response, Evaluation Type: Evaluation A (Pre-1980)) was “active; positive”.

For `O=c1c(=O)c2cc3ccccc3c3ccc4cccc1c4c23`, the mutagenic call (Species/Cell Type: Chinese hamster lung (V79) cells, Assay Type: Forward gene mutation at the HPRT or ouabain locus, Assay Code: V79-, Evaluation Type: Evaluation A (Pre-1980)) was “inactive; negative” and the mutagenic call [5] was “no conclusion”.

With `Nc1ccc(Cl)cc1` the mutagenic call [9] was “active; positive”, the mutagenic call (Species/Cell Type: Saccharomyces cerevisiae, Assay Type: Mitotic recombination or gene conversion, Assay Code: YEH-, Evaluation Type: Evaluation A (Pre-1980)) was “inactive; negative” and the mutagenic call [7] was “active; positive”.

`COC(=O)NC(=S)Nc1ccccc1NC(=S)NC(=O)OC` was tested, and the mutagenic call (Species/Cell Type: Aspergillus nidulans, Assay Type: Aneuploidy, chromosome aberrations, Assay Code: ASN+, Evaluation Type: Evaluation A (Pre-1980)) was “active; positive” and the mutagenic call (Species/Cell Type: Mammalian germ cells, Sex: Male, Assay Type: Chromosome aberrations in vivo, Assay Code: CY9-, Evaluation Type: Evaluation A (Pre-1980)) was “inactive; negative”.

With `CCOC(C)=O` the mutagenic call (Species/Cell Type: Bacillus subtilis (H17 vs M45), Assay Type: Rec-assay, spot test, DNA effects (bacterial DNA repair), Assay Code: REWT, Evaluation Type: Evaluation A (Pre-1980)) was “no conclusion” and the mutagenic call (Species/Cell Type: Mammalian polychromatic erythrocytes, Assay Type: Micronucleus test, chromosome aberrations, Assay Code: MNT-, Evaluation Type: Evaluation B (Post-1980)) was “inactive; negative”.

For `O=C(O)c1cc(N=Nc2ccc([N+](=O)[O-])cc2)ccc1O`, the mutagenic call [5] was “no conclusion”.

In the case of `CCC1CCCCN1CCNc1ccc(CO)c2sc3ccccc3c(=O)c12` (stereo not given), the mutagenic call [10] is reported as “active; positive”.
